Experimental data reported in patent US7405223B2, “Treating allergic and inflammatory conditions” (priority 2000, dated 2008).
Marks after values point to notes of the source that are not given here.

Assays:
[1] = log-transformed values, 7.5 mg once daily
clinical [2] = settings: both, human, plasma, po, 5 mg
[3] = system: seasonal allergic rhinitis patients; assay: Double-blinded, randomized clinical trials in seasonal allergic rhinitis patients
clinical [4] = settings: human, plasma, po, 7.5 mg, Day 14, 7.5 mg once daily oral; for Cmax: mean (% CV); for half-life: t1/2, mean (% CV)
[5] = Day 10, DL 5 mg once daily oral
[6] = steady state, Day 10, DL 5 mg once daily oral

SMILES: Clc1ccc2c(c1)CCc1cccnc1C2=C1CCNCC1 [desloratadine]
- AUC higher in female subjects compared with male subjects [1]: 3%
- Cmax higher in female subjects compared with male subjects [1]: 10%
- concentration at 8 day (clinical [2]): 1.31 ng/mL
- concentration at 9 day (clinical [2]): 1.33 ng/mL
- reduction of nasal symptoms versus placebo ([3]; 5 mg): significantly (p<0.01) more effective than placebo
- total symptom scores ([3]; 5 mg once daily): significantly reduced
- AM NOW total symptom score ([3]; 24 hours after dose, entire 5 mg to 20 mg dosage range): Statistically significant (p<0.05) reductions were maintained for the full 24 hour dosing interval
- differences in effectiveness across subgroups defined by gender, age, or race ([3]; entire 5 mg to 20 mg dosage range): no significant differences
- increase in t1/2 in elderly subjects >=65 years old compared with younger subjects (5 mg once daily for 10 days): ~30%
- Cmax (clinical [4]; female, Black women): 6.73 ng/mL
- Cmax (clinical [4]; female, White women): 5.46 ng/mL
- half-life (clinical [4]; female, Black women): 35.4 h
- half-life (clinical [4]; female, White women): 29.9 h
- Cmax (clinical [4]; male, White men): 6.05 ng/mL
- half-life (clinical [4]; male, Black men): 42 h
- half-life (clinical [4]; male, White men): 36 h

SMILES: Oc1cnc2c(c1)CCc1cc(Cl)ccc1C2=C1CCNCC1 [3-OH desloratadine, 3-hydroxydesloratadine]
- t1/2, arithmetic mean [5]: 36.0 h
- t1/2, harmonic mean [5]: 34.0^c hr
- AUC(0-24 hr), arithmetic mean [6]: 32.3 ng·h/mL
- AUC(0-24 hr), geometric mean [6]: 30.4 ng·h/mL
- Cmax, arithmetic mean [6]: 1.99 ng/mL
- Cmax, geometric mean [6]: 1 .87 ng/mL
- Tmax, arithmetic mean [6]: 4.76 h
- Tmax, median (geometric mean) [6]: 5 h
